Tested on: individuals diagnosed with schizophrenia
Test: Change in PANSS-N subscale by SNP genotype, patients on iloperidone 24 mg/day b.i.d. for 28 days (MMRM)
Assay type: in vivo, human
Source text: Earlier studies investigated an association between a polymorphism in the CNTF gene and iloperidone efficacy as well as associations between CYP2D6 and KCNQ1 genotypes and changes in QT interval following the administration of iloperidone. The present study involved the genotyping of DNA samples collected from 426 individuals diagnosed with schizophrenia in an attempt to identify additional SNPs associated with iloperidone efficacy. Each sample was genotyped at more than 500,000 SNP loci using the GeneChip® Human Mapping 500K Array Set (Affymetrix, Santa Clara, Calif.) and using assays developed in-house. Approximately half of the participants in the study were administered 24 mg/day of iloperidone, b.i.d., for 28 days. About 25% of the patients were administered ziprasidone. The remaining participants were administered a placebo. Three analyses of the PANSS-T were conducted. 1) A two-step approach where samples were randomly split into 2 groups of iloperidone-treated patients used to discover SNPs associated with changed in PANSS-T (Discovery phase) and a second group to confirm the 100 most significant SNPs (Confirmatory phase). 2) A one-step approach using the Last Observation Carried Forward (LOCF) PANSS-T data of all iloperidone-treated patients. For each SNP, the most parsimonious genetic model (e.g., homozygous for one allele v. all other genotypes [i.e., AA v. AB and BB], heterozygous v. homozygous [i.e., AB v. AA and BB]) was established with respect to iloperidone efficacy using a one-way analysis of variance (ANOVA). 3) A Mixed-effects Model Repeated Measures (MMRM) analysis was subsequently conducted using the best genetic model of each SNP in the MMRM model. MMRM analyses were also conducted with the PANSS subscales PANSS-P, PANSS-N, and PANSS-GP. The SNPs with a statistically significant association in all 3 analyses of PANSS-T, as well as the best of each analysis were considered significant findings and are listed below in Table 1. Results for each of these SNPs with the PANSS-T scales and with the three subscales PANSS-P, PANSS-N, and PANSS-GP are shown in Tables 2, 3, 4, and 5, respectively. […] In the present case of iloperidone efficacy, it is likely that different markers are more specifically associated with one or a few specific clinical symptoms, which is reflected in the improvement measured in separate subscales.

SMILES: COc1cc(C(C)=O)ccc1OCCCN1CCC(c2noc3cc(F)ccc23)CC1 [iloperidone, 1-[4-[3-[4-(6-fluoro-1,2-benzisoxazol-3-yl)-1-piperidinyl]propoxy]-3-methoxyphenyl]ethanone]
- mean of change in PANSS-N (SNP_A-1819750 (CREG1) genotype A_A): −5.35
- mean of change in PANSS-N (SNP_A-1819750 (CREG1) genotype A_B* (lowest response)): −2.01
- mean of change in PANSS-N (SNP_A-1819750 (CREG1) genotype B_B): −4.01
- mean of change in PANSS-N (SNP_A-1819750 (CREG1) genotype nonAB** (highest response)): −4.45
- mean of change in PANSS-N (SNP_A-1860353 (RAP1B) genotype A_A** (highest response)): −11.00
- mean of change in PANSS-N (SNP_A-1860353 (RAP1B) genotype A_B): −2.29
- mean of change in PANSS-N (SNP_A-1860353 (RAP1B) genotype B_B): −2.73
- mean of change in PANSS-N (SNP_A-1860353 (RAP1B) genotype nonAA* (lowest response)): −2.65
- mean of change in PANSS-N (SNP_A-1934663 genotype A_A): −3.38
- mean of change in PANSS-N (SNP_A-1934663 genotype A_B): −3.94
- mean of change in PANSS-N (SNP_A-1934663 genotype B_B* (lowest response)): −2.06
- mean of change in PANSS-N (SNP_A-1934663 genotype nonBB** (highest response)): −3.82
- mean of change in PANSS-N (SNP_A-1973093 (KIAA0040) genotype A_A): −3.32
- mean of change in PANSS-N (SNP_A-1973093 (KIAA0040) genotype A_B* (lowest response)): −1.85
- mean of change in PANSS-N (SNP_A-1973093 (KIAA0040) genotype B_B): −3.46
- mean of change in PANSS-N (SNP_A-1973093 (KIAA0040) genotype nonAB** (highest response)): −3.43
- mean of change in PANSS-N (SNP_A-1975928 (SLC2A9) genotype A_A): −2.87
- mean of change in PANSS-N (SNP_A-1975928 (SLC2A9) genotype A_B): −2.95
- mean of change in PANSS-N (SNP_A-1975928 (SLC2A9) genotype B_B* (lowest response)): 0.62
- mean of change in PANSS-N (SNP_A-1975928 (SLC2A9) genotype nonBB** (highest response)): −2.89
- mean of change in PANSS-N (SNP_A-1987915 (GPR126) genotype A_A): −1.91
- mean of change in PANSS-N (SNP_A-1987915 (GPR126) genotype A_B): −2.03
- mean of change in PANSS-N (SNP_A-1987915 (GPR126) genotype B_B** (highest response)): −4.28
- mean of change in PANSS-N (SNP_A-1987915 (GPR126) genotype nonBB* (lowest response)): −2.00
- mean of change in PANSS-N (SNP_A-2007721 (LOC58486) genotype A_A): 0.51
- mean of change in PANSS-N (SNP_A-2007721 (LOC58486) genotype A_B** (highest response)): −4.73
- mean of change in PANSS-N (SNP_A-2007721 (LOC58486) genotype B_B): −2.33
- mean of change in PANSS-N (SNP_A-2007721 (LOC58486) genotype nonAB* (lowest response)): −2.31
- mean of change in PANSS-N (SNP_A-2044214 (HNT) genotype A_A): −3.32
- mean of change in PANSS-N (SNP_A-2044214 (HNT) genotype A_B* (lowest response)): −2.16
- mean of change in PANSS-N (SNP_A-2044214 (HNT) genotype B_B): −3.05
- mean of change in PANSS-N (SNP_A-2044214 (HNT) genotype nonAB** (highest response)): −3.22
- mean of change in PANSS-N (SNP_A-2048427 (NPAS3) genotype A_A): −4.12
- mean of change in PANSS-N (SNP_A-2048427 (NPAS3) genotype A_B): −4.30
- mean of change in PANSS-N (SNP_A-2048427 (NPAS3) genotype B_B* (lowest response)): −2.27
- mean of change in PANSS-N (SNP_A-2048427 (NPAS3) genotype nonBB** (highest response)): −4.28
- mean of change in PANSS-N (SNP_A-2070454 (NKX2-5) genotype A_A): −1.86
- mean of change in PANSS-N (SNP_A-2070454 (NKX2-5) genotype A_B): −2.40
- mean of change in PANSS-N (SNP_A-2070454 (NKX2-5) genotype B_B** (highest response)): −4.58
- mean of change in PANSS-N (SNP_A-2070454 (NKX2-5) genotype nonBB* (lowest response)): −2.23
- mean of change in PANSS-N (SNP_A-2076797 (NUDT9P1) genotype A_A): −1.75
- mean of change in PANSS-N (SNP_A-2076797 (NUDT9P1) genotype A_B** (highest response)): −4.06
- mean of change in PANSS-N (SNP_A-2076797 (NUDT9P1) genotype B_B): −1.62
- mean of change in PANSS-N (SNP_A-2076797 (NUDT9P1) genotype nonAB* (lowest response)): −1.69
- mean of change in PANSS-N (SNP_A-2103099 (HTR1A) genotype A_A): −4.08
- mean of change in PANSS-N (SNP_A-2103099 (HTR1A) genotype A_B* (lowest response)): −2.09
- mean of change in PANSS-N (SNP_A-2103099 (HTR1A) genotype B_B): −3.40
- mean of change in PANSS-N (SNP_A-2103099 (HTR1A) genotype nonAB** (highest response)): −3.65
- mean of change in PANSS-N (SNP_A-2120958 genotype A_A): −3.15
- mean of change in PANSS-N (SNP_A-2120958 genotype A_B): −2.84
- mean of change in PANSS-N (SNP_A-2120958 genotype B_B* (lowest response)): −1.11
- mean of change in PANSS-N (SNP_A-2120958 genotype nonBB** (highest response)): −3.03
- mean of change in PANSS-N (SNP_A-2170121 (C6) genotype A_A): −2.14
- mean of change in PANSS-N (SNP_A-2170121 (C6) genotype A_B** (highest response)): −4.78
- mean of change in PANSS-N (SNP_A-2170121 (C6) genotype B_B): −2.52
- mean of change in PANSS-N (SNP_A-2170121 (C6) genotype nonAB* (lowest response)): −2.17
- mean of change in PANSS-N (SNP_A-2274533 (LZTS1) genotype A_A** (highest response)): −3.67
- mean of change in PANSS-N (SNP_A-2274533 (LZTS1) genotype A_B): −1.52
- mean of change in PANSS-N (SNP_A-2274533 (LZTS1) genotype B_B): −1.16
- mean of change in PANSS-N (SNP_A-2274533 (LZTS1) genotype nonAA* (lowest response)): −1.44
- mean of change in PANSS-N (SNP_A-2283283 (XKR4) genotype A_A* (lowest response)): −0.95
- mean of change in PANSS-N (SNP_A-2283283 (XKR4) genotype A_B): −3.20
- mean of change in PANSS-N (SNP_A-2283283 (XKR4) genotype B_B): −3.62
- mean of change in PANSS-N (SNP_A-2283283 (XKR4) genotype nonAA** (highest response)): −3.37
- mean of change in PANSS-N (SNP_A-2284243 (GRIA4) genotype A_A): −3.70
- mean of change in PANSS-N (SNP_A-2284243 (GRIA4) genotype A_B): −3.46
- mean of change in PANSS-N (SNP_A-2284243 (GRIA4) genotype B_B* (lowest response)): −0.52
- mean of change in PANSS-N (SNP_A-2284243 (GRIA4) genotype nonBB** (highest response)): −3.55
- mean of change in PANSS-N (SNP_A-4204396 (CDH13) genotype A_A): −3.22
- mean of change in PANSS-N (SNP_A-4204396 (CDH13) genotype A_B): −3.12
- mean of change in PANSS-N (SNP_A-4204396 (CDH13) genotype B_B* (lowest response)): 1.62
- mean of change in PANSS-N (SNP_A-4204396 (CDH13) genotype nonBB** (highest response)): −3.18
- mean of change in PANSS-N (SNP_A-4212785 (PPP1R3B) genotype A_A* (lowest response)): 4.72
- mean of change in PANSS-N (SNP_A-4212785 (PPP1R3B) genotype A_B): −3.06
- mean of change in PANSS-N (SNP_A-4212785 (PPP1R3B) genotype B_B): −3.11
- mean of change in PANSS-N (SNP_A-4212785 (PPP1R3B) genotype nonAA** (highest response)): −3.09
- mean of change in PANSS-N (SNP_A-4230979 (ASB3) genotype A_A): −1.72
- mean of change in PANSS-N (SNP_A-4230979 (ASB3) genotype A_B): −2.02
- mean of change in PANSS-N (SNP_A-4230979 (ASB3) genotype B_B** (highest response)): −4.23
- mean of change in PANSS-N (SNP_A-4230979 (ASB3) genotype nonBB* (lowest response)): −1.96
- mean of change in PANSS-N (SNP_A-4256833 (MLCK) genotype A_A): −3.58
- mean of change in PANSS-N (SNP_A-4256833 (MLCK) genotype A_B* (lowest response)): −0.86
- mean of change in PANSS-N (SNP_A-4256833 (MLCK) genotype B_B): −3.69
- mean of change in PANSS-N (SNP_A-4256833 (MLCK) genotype nonAB** (highest response)): −3.68
- mean of change in PANSS-N (SNP_A-4258279 (RRM1) genotype A_A): −2.57
- mean of change in PANSS-N (SNP_A-4258279 (RRM1) genotype A_B* (lowest response)): −1.09
- mean of change in PANSS-N (SNP_A-4258279 (RRM1) genotype B_B): −3.34
- mean of change in PANSS-N (SNP_A-4258279 (RRM1) genotype nonAB** (highest response)): −3.33
